According to patent US20160214926A1, “DIPHENYLOXYALKYLAMINE DERIVATIVES AND ARYLOXYALKYLAMINE DERIVATIVES, PHARMACEUTICAL COMPOSITION, USE OF SAID PHARMACEUTICAL COMPOSITION FOR TREATING, PREVENTING OR INHIBITING CHRONIC PULMONARY INFLAMMATORY DISEASES AND METHOD FOR TREATING OR PREVENTING SUCH DISEASES” (FUNDACAO OSWALDO CRUZ, priority 2013, published 2016):
Values belong to the compound of their own block, whether it stands above or below them.

Columns and labels:
A/J mice [1] = assay: Ovalbumin asthma model: airway hyperreactivity, leukocyte infiltration, cytokines (nebulization); type: in vivo; conditions: for IL-5 generation in lung tissue / IL-13 generation in lung tissue / eotaxin-2 generation in lung tissue / increased production of eotaxin-1: nebulization 2%; for airway hyperreactivity (lung resistance and elastance after methacholine): nebulization 2% for 30 minutes, OVA sensitized and challenged
Method: Male A/J mice (18-20 g), coming from the Laboratory Animal Breeding Center of Oswaldo Cruz Foundation, were used in the experiments. The animals were previously sensitized with a mixture of ovalbumin (OVA) (50 μg) (Grade V; Sigma, St. Louis, Mo., USA) and aluminum hydroxide (5 mg) administered subcutaneously on day 0 with boost on day 14 (equal suspension administered intraperitoneally). Nasal instillations of OVA (25 μg/25 μl in sterile 0.9% NaCl) were administered on days 14, 21, 28 and 35, with the hyperresponsiveness analysis performed 24 hours after the last challenge. […] That is, the treatments took place after the installation of asthma framework, reflecting a therapeutic action of the respective compounds analyzed.
The effect of the treatments on bronchial hyperreactivity was investigated by measuring the resistance changes and pulmonary elastance, using invasive barometric plethysmography whole-body system (Buxco, USA), as previously described (Olsen et al., 2012).

[2] = system: mast cells of the RBL-2H3 line; assay: Antigen-induced degranulation of sensitized mast cells (beta-hexosaminidase release); type: cell-based; conditions: Rattus norvegicus; for IC50: RBL-2H3, 1 h, RBL-2H3, DNP-BSA 10 ng/ml, 60 minutes treatment, read-out: IC50 blocking of anaphylactic mast cell degranulation; for Emax: RBL-2H3, DNP-BSA, read-out: EMAX blocking of anaphylactic mast cell degranulation
Method: For this study, mast cells of the RBL-2H3 line were used, as previously reported (Beaven et al., 1987). […] The cells were then dissociated from the plate using trypsin, centrifuged at 1000 rpm for 5 minutes and distributed in 48-well plates at a density of 125,000 cells per well. The cells were sensitized with monoclonal DNP-specific […] (1 μg/mL) diluted in the same medium used for the cultivation and maintained in the oven for 20 hours. After this period, the cells were washed with Tyrode-gelatin and subjected to treatment with increasing concentrations of […]-209 or mexiletine for 60 minutes. Then, incubation was performed with DNP-BSA (10 ng/ml) for a further period of 60 minutes. After this period, 10 μL of supernatant were collected from each well and added to a 96-well plate. The cells were lysed with 200 μL of 0.1% Triton X-100 and 10 μL of the lysate of each plate were added to the 96-well plate. Then, 40 μL of substrate for the β-hexosaminidase enzyme were added to the samples. After 40 minutes of reaction, reaction stopping solution (0.2 M glycine) was added, generating a colorimetric response, which was measured by spectrophotometer (λ=405 nm).

A/J mice [3] = assay: Methacholine-induced bronchospasm (Penh), whole-body plethysmography; type: in vivo; conditions: for blocking of methacholine-induced increase of Penh (cholinergic bronchospasm): 30 and 100 mg/kg orally
Method: A/J mice of both sexes were used, weighing between 18 and 20 g, coming from the Laboratory Animal Breeding Center of Oswaldo Cruz Foundation. Using barometric whole-body plethysmography (Buxco Research System, Wilmington, N.C.), bronchospasm responses caused by subsequent inhalations of methacholine (12, 25 and 50 mg/ml for 2.5 minutes, 5-minute intervals) were measured in standard A/J mice, awake, not immobilized, as previously reported (Coelho et al., 2008; Hamelmann et al., 1997). Penh measures in response to methacholine challenge were performed 1 hour and 3 hours after treatment with JME-207 and JME-209 (30 and 100 mg/kg) administered orally (gavage).

A/J mice [4] = assay: LPS-induced lung inflammation and airway hyperreactivity; type: in vivo
Method: Male A/J mice (18-20 g), coming from the Laboratory Animal Breeding Center of Oswaldo Cruz Foundation, were used in the experiments. The mice were anesthetized with halothane aerosol ([…], SP, Brazil) to receive intranasal administration of LPS (25 μg/25 μl 0.9% NaCl, instillation) or 0.9% NaCl (25 μl) (negative control). […] Obtaining of bronchoalveolar lavage, as well as the total and differential leukocyte counts carried out in this effluent, were made as previously described (Kummerle et al., 2012). Thus, after 18 hrs of LPS instillation, the mice were sacrificed by terminal anesthesia with thiopental (500 mg/kg). Then, they had the trachea dissected and cannulated. Bronchoalveolar lavage (BAL) was performed by 3 consecutive lavages of 800 μl of PBS containing EDTA (10 mM). The lavages were then subjected to centrifugation (1500 rpm-10 minutes) and the cell “pellet” resuspended in the volume of 0.5 ml of PBS/EDTA solution 10 mM. The total leukocyte count from the lavage was performed in a Neubauer chamber by light microscopy (100× magnification), diluting an aliquot of the cell suspension from the lavage in TPrk liquid (1:40). The differential counting was performed on cytocentrifuged, which were stained with May-Grunwald-Giemsa and assessed using oil immersion objective (1000× magnification) (Kummerle et al., 2012). The airway hyperreactivity was also assessed 18 hours after LPS, by exposing the animals to increasing concentrations of aerosolized methacholine (3-27 mg/ml) in FinePoint R/C Buxco® system (Buxco Electronics, Sharon, Conn., USA). The mice were anesthetized with Nembutal (60 mg/kg, i.p.) for the tracheostomy procedure and connection of the animal to mechanical ventilation and pneumotachograph of the FinePoint platform. The neuromuscular activity was blocked with pancuronium bromide (1 mg/kg, i.v.) to enable the pulmonary resistance records (cm H20/mL/s) and elastance (cm H20/mL) in each respiratory cycle, as previously reported (Olsen et al., 2011).

A/J mice [5] = assay: Acute airway inflammation induced by cigarette smoke; type: in vivo; conditions: JME-209 30 and 100 mg/kg
Method: Male A/J mice (18-20 g), coming from the Laboratory Animal Breeding Center of Oswaldo Cruz Foundation, were used in the experiments. The animals were placed in a chamber and subjected to an atmosphere enriched with 100 ml of smoke from 4 filter cigarettes (trade mark) for 1 minute on four consecutive days. Control animals were exposed to the condition in which cigarette smoke was replaced by equal volume of ambient air (Castro et al., 2009).
[…] The compounds were dissolved in 0.9% NaCl just prior to administration.
Obtaining of bronchoalveolar lavage, as well as the total and differential leukocyte counts carried out in this effluent, were made as previously described (Olsen et al., 2011). Thus, after 24 hrs of the last exposure to cigarette smoke, the mice were sacrificed by terminal anesthesia with thiopental (500 mg/kg). Then, they had the trachea dissected and cannulated BAL was performed by 3 consecutive lavages of 800 μl of PBS containing EDTA (10 mM). The lavages were then subjected to centrifugation (1500 rpm-10 minutes) and the cell “pellet” resuspended in the volume of 0.5 ml of PBS/EDTA solution 10 mM. The total leukocyte count from the lavage was performed in a Neubauer chamber by light microscopy (100× magnification), diluting an aliquot of the cell suspension from the lavage in TPrk liquid (1:40). The differential counting was performed on cytocentrifuged, which were stained with May-Grunwald-Giemsa and assessed using oil immersion objective (1000× magnification).

rat tracheal rings = assay: Inhibition of carbachol-induced contraction of rat tracheal rings (pretreatment); conditions: Rattus norvegicus
Description: In this study, Wistar rats of both sexes were used, weighing between 200 and 250 g, coming from the Laboratory Animal Breeding Center of Fundacdo Oswaldo Cruz. As previously described (Coelho et al., 2008), the animals were sacrificed by exposure to air atmosphere enriched with CO2, Then, the anterior cervical region was opened so that the trachea could be located and removed. It was then transferred to a Petri dish containing Krebs solution with the following composition (mM): NaCl (118), KCl (4.8), CaCl2 (2.5), MgSO4 (1.2), KH2PO4 (1.2), NaHCO3 (24), and glucose (11). The total segment was divided into fragments of about 3 to 4 rings, which were kept in another Petri dish containing Krebs solution. Each fragment was mounted vertically on a 10 ml cuvette with Krebs solution maintained at 37° C. and aerated with carbogen mixture (95% O2 and 5% CO2). The lower rod is fixed to the cuvette base and the top portion was attached to the isometric transducer for measuring the voltage variation of the fragment. The transducer was connected to a device which transforms the voltage variation in digital record. The fragments were subjected to a basal voltage of 1 g and were calibrated, so that the subsequent contractions could be expressed as a percentage of this 1 g voltage. The solutions were introduced inside the cuvettes with the aid of an automatic pipette. The end of the tip was always placed at the same height and position, without touching the muscle. The tracheal rings were initially contracted with 2.5 μM of carbachol. When the contractions reached the plateau, each segment was washed until the total relaxation of the smooth muscle. […] All results were expressed as percentage of the contraction produced by 2.5 μM of carbachol (Coelho et al., 2008).

[6] = system: rat tracheas pre-contracted with carbachol; assay: Relaxation of rat trachea pre-contracted with carbachol
Method: To assess the potential relaxing effect of the respiratory smooth muscle, rat tracheas were obtained and maintained in an isolated organ bath, as previously described (Coelho et al., 2008). The tracheal segments were then pre-contracted with carbachol at the concentration of 2.5 μM and subjected to increasing concentrations of the tested compounds. All results were expressed as percentage of the contraction produced by carbachol (Coelho et al., 2008).

tracheal rings = assay: Anaphylactic (ovalbumin-induced) contraction of tracheal rings from sensitized rats; parameters: species or system Wistar rats; conditions: compound 30 μM
Method: In this study, Wistar rats of both sexes were used, weighing between 200 and 250 g, coming from the Laboratory Animal Breeding Center of Fundacdo Oswaldo Cruz. As described previously (da Costa et al., 2007), the animals were sensitized by injection into the dorsal subcutaneous tissue with mixture containing 50 μg of ovalbumin and 5 mg of aluminum hydroxide on days 0 and 7. On the 14th day after the first sensitization, the animals were sacrificed for the removal of the trachea. After a stabilization period of 30 minutes, the tracheal rings were contracted initially with carbachol (2.5 μM) for testing the feasibility and reproducibility of the responses of the preparation.
The tracheal rings were exposed to increasing concentrations of JME-173 (3-30 μM), or carrier (0.9% NaCl) for 30 minutes before the triggering of the contractile response triggered by ovalbumin (100 μg/ml). Salmeterol (30 μM) was used as reference treatment. The responses were expressed as mean±Standard Error of the Mean of at least 5 tracheal segments. All results were expressed as percentage of the contraction produced by 2.5 μM of carbachol.

[7] = 30 and 100 mg/kg orally 1 hour before LPS

SMILES: CC(N)COc1ccc(F)c(Cl)c1.Cl (centres unmarked) [JME-188]
IL-5 generation in lung tissue (A/J mice [1]): equally sensitive | IL-13 generation in lung tissue (A/J mice [1]): equally sensitive | eotaxin-2 generation in lung tissue (A/J mice [1]): inhibited | increased production of eotaxin-1 (A/J mice [1]): failed to modify | airway hyperreactivity (lung resistance and elastance after methacholine) (A/J mice [1]): abolished

SMILES: CC(N)COc1ccc(-c2ccccc2)cc1.Cl (centres unmarked) [JME-209]
IC50 [2]: 28.6 µM | Emax [2]: 100% | action time (A/J mice [3]; 100 mg/kg orally): at least 3 hours | blocking of methacholine-induced increase of Penh (cholinergic bronchospasm) (A/J mice [3]; 1 hour after treatment): slight blocking | blocking of methacholine-induced increase of Penh (cholinergic bronchospasm) (A/J mice [3]; 3 hours after treatment): active only at the highest dose | increase in the number of mononuclear cells in bronchoalveolar lavage (A/J mice [4]; [7]): without significantly altering | levels of eosinophils in bronchoalveolar lavage (A/J mice [4]; [7]): reducing | levels of neutrophils in bronchoalveolar lavage (A/J mice [4]; [7]): reducing | leukocyte infiltration in bronchoalveolar space (A/J mice [4]; 30 and 100 mg/kg orally 1 hour before LPS, 18 hours after challenge): inhibited | airway hyperreactivity (lung resistance and elastance) (A/J mice [4]; oral treatment 1 hour before LPS, 18 hours after LPS): inhibited | eosinophils in bronchoalveolar effluent (A/J mice [5]; dexamethasone 1 mg/kg, orally): blocked | mononuclear cells in bronchoalveolar effluent (A/J mice [5]; dexamethasone 1 mg/kg, orally): blocked | neutrophils in bronchoalveolar effluent (A/J mice [5]; dexamethasone 1 mg/kg, orally): blocked | accumulation of total leukocytes in bronchoalveolar space (A/J mice [5]; dexamethasone 3 mg/kg, orally 1 hr before smoke): significantly inhibited

IC50 (rat tracheal rings; carbachol 10 μM, pretreated 10 minutes): 40.9 µM | EC50 ([6]; Rattus norvegicus, trachea pre-contracted with carbachol 2.5 μM, mean±SEM): 1000 µM
SMILES: Cc1cc(I)ccc1OCC(C)N.Cl (centres unmarked) [JME-207]
Emax (rat tracheal rings; carbachol 10 μM, pretreated 10 minutes, mean ± SEM, read-out: EMAX maximum effect of inhibition of carbachol-induced contraction): 92.9 ± 4.3% | inhibition at 100 µM (rat tracheal rings; compound 100 μM, pre-treatment 10 minutes, read-out: inhibition of the muscarinic contraction): ~93% | times more potent as relaxation inducers than mexiletine ([6]; pre-contracted trachea): 146 times | maximum relaxation effect ([6]; trachea pre-contracted with carbachol 2.5 μM, mean±SEM): 111% | IC50 [2]: 2.3 µM | Emax [2]: 94% | blocking of methacholine-induced increase of Penh (cholinergic bronchospasm) (A/J mice [3]; 3 hours after treatment): significantly inhibited | IL-5 generation in lung tissue (A/J mice [1]): equally sensitive | IL-13 generation in lung tissue (A/J mice [1]): equally sensitive | eotaxin-2 generation in lung tissue (A/J mice [1]): only the latter inhibited | increased production of eotaxin-1 (A/J mice [1]): failed to modify | airway hyperreactivity (lung resistance and elastance after methacholine) (A/J mice [1]): abolished

SMILES: CC(N)COc1cccc(I)c1.Cl (centres unmarked) [JME-141]
airway hyperreactivity (lung resistance and elastance after methacholine) (A/J mice [1]): abolished

SMILES: OCc1cc(C(O)CNCCCCCCOCCCCc2ccccc2)ccc1O (centres unmarked) [salmeterol, reference compound]
blocking of anaphylactic contraction (tracheal rings): 52%
